Calls of active or inactive are those of the source. The calls are words filed in the database; no cut-off is given here.
Columns and labels:
MCF7 [1] = experiment: Antiproliferative activity against human MCF7 cells assessed as cell proliferation at 30 uM after 48 hrs by MTT assay relative to control; assay type: functional; conditions: MCF7, 48 h, read-out: Activity
LNCaP [2] = experiment: Antiproliferative activity against human LNCAP cells assessed as cell proliferation at 30 uM after 48 hrs by MTT assay relative to control; assay type: functional; conditions: read-out: Activity
[3] = Antiproliferative activity against NHDF assessed as cell proliferation at 30 uM after 48 hrs by MTT assay relative to control; assay type: cell-based; conditions: human, NHDF cells; read-out: Activity
LNCaP [4] = experiment: Antiproliferative activity against human LNCAP cells assessed as cell proliferation at 1 mM after 48 hrs by MTT assay relative to control; conditions: read-out: Activity
MCF7 [5] = experiment: Antiproliferative activity against human MCF7 cells assessed as cell proliferation at 1 mM after 48 hrs by MTT assay relative to control; conditions: MCF7, 48 h, read-out: Activity
[6] = Antiproliferative activity against NHDF assessed as cell proliferation at 1 mM after 48 hrs by MTT assay relative to control; conditions: human, NHDF cells
MCF7 [7] = experiment: Antiproliferative activity against human MCF7 cells after 48 hrs by MTT assay; assay type: functional, cell-based; conditions: MCF7, 48 h
LNCaP [8] = experiment: Antiproliferative activity against human LNCAP cells after 48 hrs by MTT assay; assay type: functional, cell-based
MCF7 [9] = experiment: Induction of morphological changes in human MCF7 cells assessed as cell rounding at 30 uM after 24 hrs by propidium iodide staining-based microscopic analysis; assay type: functional
MCF7 [10] = experiment: Induction of apoptosis in human MCF7 cells assessed as reduction in viable cells at 30 uM after 24 hrs by propidium iodide staining based FACS analysis; assay type: functional, cell-based
MCF7 [11] = experiment: Induction of apoptosis in human MCF7 cells assessed as reduction in viable cells at 30 uM after 24 hrs by propidium iodide staining-based microscopic analysis; assay type: functional, cell-based

CCCCCCSc1ccccc1N(CC)C(C)=O
growth at 30 µM (MCF7 [1]): 67.7%

CCCCCCSc1cc([N+](=O)[O-])ccc1N(CCCCCC)C(C)=O
growth at 30 µM (MCF7 [1]): 65.9%
growth at 30 µM (LNCaP [2]): 92.3%
viability at 48 h, 30 µM [3]: 111%

OO [HYDROGEN PEROXIDE]
growth at 1000 µM (LNCaP [4]): 2.15%
growth at 1000 µM (MCF7 [5]): 4.44%
viability at 48 h, 1000 µM [6]: 15.5%

CCSc1ccccc1N(CC)CC
growth at 30 µM (MCF7 [1]): 99.7%

CCCCCCN(C(C)=O)c1ccc(NC(C)=O)cc1SCC1CCCCC1
IC50 (MCF7 [7]): 20.4 µM
growth at 30 µM (MCF7 [1]): 35.9%
growth at 30 µM (LNCaP [2]): 117%
viability at 48 h, 30 µM [3]: 98.2%

CCSc1ccccc1N(Cc1ccccc1)C(C)=O
growth at 30 µM (MCF7 [1]): 89.4%

CCCCCCN(C(C)=O)c1ccccc1OCCC
growth at 30 µM (MCF7 [1]): 51.5%

CCOc1ccccc1N(CC)C(C)=O
growth at 30 µM (MCF7 [1]): 93.5%

CCCCCCSc1cc(NC(C)=O)ccc1N(Cc1ccc(C)cc1C)C(C)=O
IC50 (LNCaP [8]): 13.9 µM
IC50 (MCF7 [7]): 21.6 µM
growth at 30 µM (MCF7 [1]): 6.86%
growth at 30 µM (LNCaP [2]): 19.1%
viability at 48 h, 30 µM [3]: 80.1%
Activity (MCF7 [9]): Active
Activity (MCF7 [10]): Active

CCN(CC)c1ccccc1SC
growth at 30 µM (MCF7 [1]): 97.2%

CCCCCCN(C(C)=O)c1ccccc1SCCC
growth at 30 µM (MCF7 [1]): 47.6%

CCCCCCSc1cc(NC(C)=O)ccc1N(CC1CCCCC1)C(C)=O
IC50 (MCF7 [7]): 21 µM
growth at 30 µM (MCF7 [1]): 24.2%
growth at 30 µM (LNCaP [2]): 49.8%
viability at 48 h, 30 µM [3]: 82.8%

CC(=O)N(Cc1ccccc1C)c1ccccc1SCc1ccccc1C
growth at 30 µM (MCF7 [1]): 13.7%

CS(=O)(=O)Nc1ccc([N+](=O)[O-])cc1Oc1ccccc1 [NIMESULIDE]
Activity (MCF7 [11]): Active
IC50 (LNCaP [8]): 26.7 µM
IC50 (MCF7 [7]): > 100 µM
growth at 30 µM (MCF7 [1]): 42.5%
growth at 30 µM (LNCaP [2]): 73.8%
viability at 48 h, 30 µM [3]: 89.3%
Activity (MCF7 [10]): Active

CCCOc1ccccc1N(CC)C(C)=O
growth at 30 µM (MCF7 [1]): 92.5%

O=c1[nH]cc(F)c(=O)[nH]1 [FLUOROURACIL]
Activity (MCF7 [11]): Active
IC50 (LNCaP [8]): 5.21 µM
IC50 (MCF7 [7]): 3.18 µM
growth at 30 µM (MCF7 [1]): 28.3%
growth at 30 µM (LNCaP [2]): 58.8%
viability at 48 h, 30 µM [3]: 86.8%
Activity (MCF7 [10]): Active

CCOc1ccccc1N(Cc1ccccc1)C(C)=O
growth at 30 µM (MCF7 [1]): 87.6%

CCSc1ccccc1N(CC)C(C)=O
growth at 30 µM (MCF7 [1]): 99.5%

CC(=O)Nc1ccc(N(Cc2ccc(C)cc2C)C(C)=O)c(SCc2ccc(C)cc2C)c1
IC50 (MCF7 [7]): 7.33 µM
growth at 30 µM (MCF7 [1]): 15.3%
growth at 30 µM (LNCaP [2]): 48%
viability at 48 h, 30 µM [3]: 89.9%

CC(=O)Nc1ccc(N(Cc2ccc(C)cc2C)C(C)=O)c(SCC2CCCCC2)c1
IC50 (MCF7 [7]): 25.2 µM
growth at 30 µM (MCF7 [1]): 13.6%
growth at 30 µM (LNCaP [2]): 40.4%
viability at 48 h, 30 µM [3]: 80.5%

CCCCCCOc1ccccc1N(CC)C(C)=O
growth at 30 µM (MCF7 [1]): 55.5%

CCCCCCSc1cc(NC(C)=O)ccc1N(CCCCCC)C(C)=O
IC50 (MCF7 [7]): 24.9 µM
growth at 30 µM (MCF7 [1]): 36.6%
growth at 30 µM (LNCaP [2]): 73.9%
viability at 48 h, 30 µM [3]: 93.6%

CC(=O)Nc1ccc(N(CC2CCCCC2)C(C)=O)c(SCc2ccc(C)cc2C)c1
IC50 (LNCaP [8]): 9.71 µM
IC50 (MCF7 [7]): 20.8 µM
growth at 30 µM (MCF7 [1]): 9.08%
growth at 30 µM (LNCaP [2]): 23%
viability at 48 h, 30 µM [3]: 79.7%

CCCSc1ccccc1N(CC)C(C)=O
growth at 30 µM (MCF7 [1]): 89.1%

CC(=O)Nc1ccc(N(CC2CCCCC2)C(C)=O)c(SCC2CCCCC2)c1
IC50 (LNCaP [8]): 9.16 µM
IC50 (MCF7 [7]): 16.6 µM
growth at 30 µM (MCF7 [1]): 7.52%
growth at 30 µM (LNCaP [2]): 29.7%
viability at 48 h, 30 µM [3]: 86.2%
Activity (MCF7 [9]): Active
Activity (MCF7 [10]): Active

CCN(C(C)=O)c1ccccc1OCc1ccccc1
growth at 30 µM (MCF7 [1]): 88.8%

CCCCCCN(C(C)=O)c1ccc(NC(C)=O)cc1SCc1ccc(C)cc1C
IC50 (MCF7 [7]): 20.7 µM
growth at 30 µM (MCF7 [1]): 11.1%
growth at 30 µM (LNCaP [2]): 88.5%
viability at 48 h, 30 µM [3]: 83%

CCN(C(C)=O)c1ccccc1SCc1ccccc1
growth at 30 µM (MCF7 [1]): 95.3%

CCSc1ccccc1N(Cc1ccccc1C)C(C)=O
growth at 30 µM (MCF7 [1]): 77%

CCCN(C(C)=O)c1ccccc1SC
growth at 30 µM (MCF7 [1]): 95.3%

CC(=O)N(Cc1ccccc1)c1ccccc1SCc1ccccc1
growth at 30 µM (MCF7 [1]): 79.8%
